Test results taken from ChEMBL document CHEMBL3621111, “In vitro COX-1 and COX-2 enzyme inhibitory activities of iridoids from Penstemon barbatus, Castilleja tenuiflora, Cresentia alata and Vitex mollis” (Bioorg Med Chem Lett, 2015).

Legend:
[1] = molecular target: Prostaglandin G/H synthase 1 (Homo sapiens) (UniProt P23219); assay: Inhibition of COX1 (unknown origin) assessed as PGH2 production at 10 uM by measuring […] level by enzyme immunoassay
[2] = molecular target: Prostaglandin G/H synthase 1 (Homo sapiens) (UniProt P23219); assay: Inhibition of COX1 (unknown origin) assessed as PGH2 production at 35 uM by measuring […] level by enzyme immunoassay
[3] = molecular target: Prostaglandin G/H synthase 1 (Homo sapiens) (UniProt P23219); assay: Inhibition of COX1 (unknown origin) assessed as PGH2 production at 100 uM by measuring […] level by enzyme immunoassay

Chain of Prostaglandin G/H synthase 1 (Homo sapiens) (P23219 whole entry): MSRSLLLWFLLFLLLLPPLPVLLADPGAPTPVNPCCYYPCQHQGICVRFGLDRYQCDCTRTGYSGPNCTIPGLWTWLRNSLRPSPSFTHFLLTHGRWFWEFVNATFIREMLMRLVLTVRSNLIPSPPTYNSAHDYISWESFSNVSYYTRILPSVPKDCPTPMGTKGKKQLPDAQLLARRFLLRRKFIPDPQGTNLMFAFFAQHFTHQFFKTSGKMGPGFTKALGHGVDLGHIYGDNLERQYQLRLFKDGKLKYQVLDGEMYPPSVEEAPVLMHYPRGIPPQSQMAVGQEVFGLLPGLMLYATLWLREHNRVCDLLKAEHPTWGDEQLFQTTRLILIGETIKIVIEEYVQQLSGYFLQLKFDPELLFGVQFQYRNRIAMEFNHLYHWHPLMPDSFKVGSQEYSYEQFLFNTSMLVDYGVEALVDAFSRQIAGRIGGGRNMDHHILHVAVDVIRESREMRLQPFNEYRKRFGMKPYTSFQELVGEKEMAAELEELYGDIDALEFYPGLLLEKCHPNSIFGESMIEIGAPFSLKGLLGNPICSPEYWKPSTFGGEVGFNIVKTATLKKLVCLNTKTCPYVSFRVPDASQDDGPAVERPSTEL

inhibition [1] [%] | inhibition [2] [%] | inhibition [3] [%] | SMILES
43 | 48 | 73.3 | C[C@@H]1CC[C@@H]2C(C=O)=CO[C@@H](O[C@@H]3O[C@H](CO)[C@@H](O)[C@H](O)[C@H]3O)[C@H]12
36.3 | 36.6 | 39.9 | C[C@@H]1CC[C@]2(O)C(C=O)=CO[C@@H](O[C@@H]3O[C@H](CO)[C@@H](O)[C@H](O)[C@H]3O)[C@H]12
55.7 | 54.1 | 55.3 | O=C(O)C1=CO[C@@H](O[C@@H]2O[C@H](CO)[C@@H](O)[C@H](O)[C@H]2O)[C@@H]2C(CO)=CC[C@H]12
51.2 | 51.5 | 50.5 | COC(=O)C1=CO[C@@H](O[C@@H]2O[C@H](CO)[C@@H](O)[C@H](O)[C@H]2O)[C@@H]2[C@@H](C)[C@@H](O)C[C@H]12
51.7 | 51.4 | 48.2 | C=C1[C@H]2[C@H](O[C@@H]3O[C@H](CO)[C@@H](O)[C@H](O)[C@H]3O)OC=C(C(=O)O)[C@H]2C[C@@H]1O
35 | 34.3 | 32.8 | COc1ccc(C(=O)O[C@@H]2C=C(CO)[C@H]3[C@H](O[C@@H]4O[C@H](CO)[C@@H](O)[C@H](O)[C@H]4O)OC=C[C@H]32)cc1
38.2 | 38.6 | 39.1 | COc1ccc(C(=O)O[C@H]2[C@@H]3C=CO[C@@H](O[C@@H]4O[C@H](CO)[C@@H](O)[C@H](O)[C@H]4O)[C@@H]3[C@@]3(CO)O[C@@H]23)cc1OC
52.7 | 49.9 | 47.5 | OCC1=CC[C@@H]2C=CO[C@@H](O[C@@H]3O[C@H](CO)[C@@H](O)[C@H](O)[C@H]3O)[C@H]12
33.2 | 33.4 | 51.7 | COC(=O)C1=CO[C@@H](O[C@@H]2O[C@H](CO)[C@@H](O)[C@H](O)[C@H]2O)[C@@H]2[C@H](C)C[C@@H](O)[C@]12O
36.9 | 36 | 35.4 | C[C@@H]1[C@H]2[C@H](O[C@@H]3O[C@H](CO)[C@@H](O)[C@H](O)[C@H]3O)OC=C(C(=O)O)[C@H]2C[C@@H]1O
33.4 | < 30 | < 30 | COC(=O)C1=CO[C@@H](O[C@@H]2O[C@H](CO)[C@@H](O)[C@H](O)[C@H]2O)[C@@H]2[C@H](C)[C@@H](O)C[C@H]12
< 30 | 42.6 | 42.7 | COC(=O)C1=CO[C@@H](O[C@@H]2O[C@H](CO)[C@@H](O)[C@H](O)[C@H]2O)[C@H]2[C@@H]1CC[C@]2(C)O
38.5 | 38.6 | 39.1 | CC(=O)O[C@]1(C)C[C@@H](O)[C@]2(O)C=CO[C@@H](O[C@@H]3O[C@H](CO)[C@@H](O)[C@H](O)[C@H]3O)[C@@H]21
49.9 | 48.2 | 50.2 | OCC1=C[C@@H](O)[C@@H]2C=CO[C@@H](O[C@@H]3O[C@H](CO)[C@@H](O)[C@H](O)[C@H]3O)[C@H]12
44.2 | 47.6 | 63.7 | OC[C@H]1O[C@@H](O[C@@H]2OC=C[C@H]3[C@H](O)[C@@H]4O[C@]4(CO)[C@@H]23)[C@H](O)[C@@H](O)[C@@H]1O
40.3 | 40.8 | 43.4 | O=C(OCC1=C[C@@H](O)[C@@H]2C=CO[C@@H](O[C@@H]3O[C@H](CO)[C@@H](O)[C@H](O)[C@H]3O)[C@H]12)c1ccc(O)cc1
